Measured values published in US20250123282A1, “METHODS FOR EVALUATION AND TREATMENT OF TYROSINE KINASE INHIBITOR (TKI)-RESISTANT ACUTE MYELOID LEUKEMIA” (LOMA LINDA UNIVERSITY, priority 2021, published 2025).

Experiments:
MV4-11 cells [1] = assay: FACS time course of CD44+pBAD+ and Ki67+CD33+CD44+ populations in TKI-treated MV4-11; type: cell-based, human
Description: To follow the cell fate of TKI-treated MV4-11 and MOLM-14, culturing of blasts were continued by performing medium change every 2-3 days. […] The BAD protein is a pro-apoptotic member of the BCL-2 gene family, which is involved in initiating apoptosis. Dephosphorylated BAD is pro-apoptotic by binding BCL-2 and inactivating BCL-2, while phosphorylated BAD (pBAD) is anti-apoptotic by leaving BCL-2 free to inhibit BAX-triggered apoptosis.
(§1) Small Molecular Inhibitors and in vitro & ex vivo Treatment. […] The dose of 80 nM for the four TKIs was selected based on their dose-dependent cytotoxicity in previous reports. […] Both GILT and QUIZ were reported to start to suppress the tumorigenic clustering and c-Kit at the dose of 80 nM. […] The combination of 5 μM 5-Azacitidine (AZA) and 80 nM 1α,25-Dihydroxyvitamin D3 (VD3) was added to the experimental group similar to the previous report. As combination agents to treat blasts in vitro, one dose of 80 nM GILT with one dose of either 100 nM Venetoclax (BCL2 inhibitor), 10 μM (R)-Lisofylline (STAT4 inhibitor), 100 nM AZD1208 (PIM inhibitor), 500 nM PF-06826647 (TYK2 inhibitor), or 500 nM AT9283 (JAK2/3 inhibitor) were added to 1 ml of 1×10^6 cells for each experimental group in 24 well plates. Three days after the one dose treatment, cells were then collected for either analyses by FACS and qPCR, or re-plated into 24 well plates for continued culture. At different time points, re-plated cells were collected for analyses by FACS and qPCR. Medium change was performed every 2-3 days.
Flow Cytometry (FACS). Cells were harvested and examined for the expression of cell surface biomarkers (CD) and intracellular proteins by multichromatic FACS as previously described. About 1×10^4˜10^6 cells in 100 μl FACS buffer (PBS containing 1% FBS and 0.05% sodium azide) were stained with various fluorescence-conjugated antibodies specific for the desired cell surface proteins at 4° C. for 30 min. The surface-stained cells were then fixed and permeabilized using the appropriate reagents (e.g. the BD Pharmingen Cytofix/Cytoperm buffer) and stained with different fluorescence-conjugated antibodies specific for the desired intracellular proteins at 4° C. for 2 hours in the permeabilizing buffer (e.g. the BD Perm/Wash buffer). Concentrations of the Abs were used per the manufacturers' recommendations. Finally, the cells were washed twice in the permeabilizing buffer and twice in the FACS buffer before being analyzed on the BD FACSAria II. Data was analyzed using the FlowJo software (Tree Star Inc., Ashland, OR).

MV4-11 cells [2] = assay: qPCR analyses of gene expression changes in TKI-treated MV4-11; type: cell-based, human
Description: MV4-11 cells (3 days after TKI treatment) were harvested and analyzed by reverse transcription quantitative polymerase chain reaction (qPCR). The qPCR data of four genetic aspects including cell death, kinases specialized in phosphorylation of BAD, JAK/STAT signaling pathway, and intrinsic inhibitory pathways were compared. […] Next, to investigate which kinases are responsible for the phosphorylation of BAD (pBAD) after TKI treatment, screenings of those kinase candidates reported to phosphorylate BAD under physiological conditions were conducted. […] Elevated gene expressions of both PIM2 and PIM3 have been found in adult AML patients associated with poor survival.
as §1
RNA Isolation and Real-Time Polymerase Chain Reaction (qPCR) analysis. MV4-11 and MOLM-14 cells were cultured with the presence of TKI drugs for 72 hours or re-plated 28 days after the treatment of TKI drugs. Cells were isolated for RNA isolation and qPCR analysis as previously described. Total RNA was isolated using the RNeasy Micro Kit (Qiagen) according to the manufacturer's instruction. First-strand cDNA was synthesized using the SuperScript III Reverse Transcriptase (Invitrogen; Life Technologies). With an Applied Biosystems 7900HT Real-Time PCR machine, qPCR was performed and analyzed using known primers for the specific markers. The PCR conditions were 10 minutes at 95° C. followed by 40 cycles of 10 seconds at 95° C. and 15 seconds at 60° C. The relative expression level of a gene was determined using the ΔΔCt method and normalized to GAPDH.

[3] = MV4-11, 10 days after TKI treatment
[4] = MV4-11, 20 days after TKI treatment
[5] = MV4-11, 3 days after TKI treatment, vs control
[6] = MV4-11, 3 days after TKI treatment, vs control non-treatment cells
[7] = MV4-11, 28 days after TKI treatment
[8] = MV4-11, 10 days after TKI treatment, vs non-treatment control
[9] = MV4-11, 28 days after the treatment
[10] = MV4-11, 28 days after the treatment, vs control non-treatment cells

Structure (SMILES) | population of viable CD44+pBAD+ cells (MV4-11 cells [1]; [3]) | population of viable Ki67+CD33+CD44+ cells (MV4-11 cells [1]; [3]) | population of viable CD44+pBAD+ cells (MV4-11 cells [1]; [4]) | population of viable Ki67+CD33+CD44+ cells (MV4-11 cells [1]; [4]) | BAD mRNA increase (MV4-11 cells [2]; [6]) | BAX mRNA increase (MV4-11 cells [2]; [6]) | BCL-2 mRNA increase (MV4-11 cells [2]; [6]) | JAK2 mRNA increase (MV4-11 cells [2]; [6]) | PIAS2 mRNA increase (MV4-11 cells [2]; [6]) | PIM2 mRNA increase (MV4-11 cells [2]; [6]) | PIM3 mRNA increase (MV4-11 cells [2]; [6]) | SHP1 mRNA increase (MV4-11 cells [2]; [6]) | SHP2 mRNA increase (MV4-11 cells [2]; [6]) | SOCS1 mRNA increase (MV4-11 cells [2]; [6]) | SOCS3 mRNA increase (MV4-11 cells [2]; [6]) | STAT2 mRNA increase (MV4-11 cells [2]; [6]) | STAT4 mRNA increase (MV4-11 cells [2]; [6]) | TYK2 mRNA increase (MV4-11 cells [2]; [6]) | further results
CCc1nc(C(N)=O)c(Nc2ccc(N3CCC(N4CCN(C)CC4)CC3)c(OC)c2)nc1NC1CCOCC1 [GILT, Gilteritinib] | 28.7% | 17.4% | 1.1% | 1.27% | 23 fold | 68 fold | 49 fold | 6 fold | about 2 fold | 203 fold | 134 fold | about 4 fold | 9 fold | 153 fold | 182 fold | 9 fold | 23 fold | 71 fold | NFκB2 mRNA increase (MV4-11 cells [2]; MV4-11, 80 nM TKI, vs non-treated control): 110 fold; CXCR2 mRNA increase (MV4-11 cells [2]; MV4-11, 3 days after TKI treatment): 109 fold; AKT1 mRNA increase (MV4-11 cells [2]; [5]): 10 fold; PRKACA mRNA increase (MV4-11 cells [2]; [5]): 15 fold; STAT3 mRNA increase (MV4-11 cells [2]; [6]): 2 fold; STAT5A mRNA increase (MV4-11 cells [2]; [6]): 4 fold; CXCR1 mRNA increase (MV4-11 cells [2]; MV4-11, 3 days after TKI treatment, data not shown): about 90 fold
CC(C)(C)c1cc(NC(=O)Nc2ccc(-c3cn4c(n3)sc3cc(OCCN5CCOCC5)ccc34)cc2)no1 [QUIZ, Quizartinib] | 93.1% | 68.2% | 20.7% | 52.8% | 16 fold | 44 fold | 31 fold | 6 fold | about 2 fold | 120 fold | 81 fold | about 3 fold | 5 fold | 88 fold | 120 fold | 6 fold | 19 fold | 46 fold | population of viable CD44+pBAD+ cells (MV4-11 cells [1]; [7]): 0.24%; population of viable Ki67+CD33+CD44+ cells (MV4-11 cells [1]; [7]): 1.58%; PIM1 mRNA decrease (MV4-11 cells [2]; [6]): 0.5 fold; PIAS2 mRNA increase (MV4-11 cells [2]; [8]): 570 fold; PIM2 mRNA increase (MV4-11 cells [2]; [8]): 355 fold; PIM3 mRNA increase (MV4-11 cells [2]; [8]): 494 fold; SHP2 mRNA increase (MV4-11 cells [2]; [8]): 9 fold; SOCS1 mRNA increase (MV4-11 cells [2]; [8]): 615 fold; SOCS3 mRNA increase (MV4-11 cells [2]; [8]): 590 fold; STAT2 mRNA increase (MV4-11 cells [2]; [8]): 14 fold; STAT4 mRNA increase (MV4-11 cells [2]; [8]): 28 fold; TYK2 mRNA increase (MV4-11 cells [2]; [8]): 73 fold; PIM2 mRNA increase (MV4-11 cells [2]; [9]): about 2 fold; PIM3 mRNA increase (MV4-11 cells [2]; [9]): about 2 fold; CISH mRNA increase (MV4-11 cells [2]; [10]): about 2 fold; SOCS1 mRNA increase (MV4-11 cells [2]; [10]): ~4 fold; SOCS3 mRNA increase (MV4-11 cells [2]; [10]): about 2 fold
